Experimental data: ChEMBL document CHEMBL4196118, “Discovery of MK-8318, a Potent and Selective CRTh2 Receptor Antagonist for the Treatment of Asthma” (ACS Med Chem Lett, 2018)
Values belong to the molecule of their own block, whether it stands above or below them.

Legend:
[1] = AUC (0 to 6 hrs) in rat at 0.5 mg/kg, iv; type: ADME, organism-based; parameters: time < 6 hr, dose 0.5 mg/kg, route intravenous; settings: in vivo
[2] = Intrinsic clearance in rat hepatocytes assessed per million cells; type: ADME, cell-based, Hepatocyte; settings: read-out: CLH
[3] = target: T1, Prostaglandin D2 receptor 2 (Homo sapiens, UniProt Q9Y5Y4)
T1 sequence (Q9Y5Y4 whole entry): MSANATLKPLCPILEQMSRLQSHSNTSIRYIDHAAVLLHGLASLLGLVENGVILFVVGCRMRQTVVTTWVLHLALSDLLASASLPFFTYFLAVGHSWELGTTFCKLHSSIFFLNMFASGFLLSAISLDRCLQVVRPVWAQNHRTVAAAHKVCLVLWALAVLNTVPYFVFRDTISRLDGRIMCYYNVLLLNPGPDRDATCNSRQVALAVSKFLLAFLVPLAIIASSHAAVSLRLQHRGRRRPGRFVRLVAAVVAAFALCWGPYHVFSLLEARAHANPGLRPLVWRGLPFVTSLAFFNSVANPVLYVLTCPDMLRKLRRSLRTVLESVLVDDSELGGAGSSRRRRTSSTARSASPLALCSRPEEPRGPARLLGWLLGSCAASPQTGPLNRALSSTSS

[4] = target: T1, Prostaglandin D2 receptor 2; remark: listed apart in the source
Description: Antagonist activity at human CRTh2 expressed in CHOK1 cells assessed as inhibition of PGD2-induced beta-arrestin recruitment incubated for 30 mins followed by PGD2 stimulation measured after 60 mins by PathHunter based chemiluminescence assay

[5] = target: T1, Prostaglandin D2 receptor 2; experiment: biochemical
Description: Displacement of [3H]PGD2 from human CRTh2 expressed in HEK cell membranes after 60 mins by scintillation counting method

[6] = target: T1, Prostaglandin D2 receptor 2; experiment: […] activity at human CRTh2 expressed in HEK cells assessed as forskolin-induced intracellular cAMP accumulation by ELISA based chemiluminescence assay; type: functional, cell-based
[7] = AUC (0 to 6 hrs) in rat at 2 mg/kg, iv; type: ADME, organism-based; parameters: time < 6 hr, dose 2 mg/kg, route intravenous; settings: in vivo

AUC(0-t) at 6 h [1]: 0.32 µM·h
SMILES: C[C@H](OC(=O)N1c2ccccc2[C@H](N(C(=O)CCC(=O)O)C2CC2)[C@@H]2CCC[C@@H]21)c1ccc(F)cc1

hepatocyte CLint [2]: 13 µL/min/1e6 cells | IC50 [3]: 2 nM | IC50 [4]: 1.4 nM | Ki [5]: 3.5 nM
SMILES: O=C(O)COC(=O)N(C1CC1)[C@H]1c2ccccc2N(C(=O)c2ccc(F)cc2)[C@H]2CC[C@H]21

Ki [5]: 510 nM
SMILES: CC(CC(=O)N(C1CC1)[C@H]1c2ccccc2N(C(=O)OCc2ccccc2)[C@H]2CCC[C@H]21)C(=O)O (some centres not stated)

Ki [5]: 28 nM
SMILES: O=C(O)CCC(=O)N(C1CC1)[C@H]1c2ccccc2N(c2nnc(-c3ccccc3)o2)[C@H]2CCC[C@H]21

Ki [5]: 840 nM
SMILES: O=C(O)c1ccccc1C(=O)N(C1CC1)[C@H]1c2ccccc2N(C(=O)c2ccc(OC(F)(F)F)cc2)[C@H]2CCC[C@H]21

Ki [5]: 8.6 nM
SMILES: O=C(O)CCC(=O)N(C1CCC1)[C@H]1c2ccccc2N(C(=O)c2ccc(OC(F)(F)F)cc2)[C@H]2CCCC21 (single isomer, unassigned)

Ki [5]: 300 nM
SMILES: O=C(O)CCC(=O)N(C1CC1)[C@H]1c2cc(-c3cncnc3)ccc2N(C(=O)c2ccc(OC(F)(F)F)cc2)[C@H]2CCC[C@H]21

EC50 [6]: 12 nM | IC50 [3]: 2920 nM | Ki [5]: 51 nM
SMILES: CCN(c1nc(C(=O)O)cs1)[C@H]1c2ccccc2N(C(=O)OCc2ccccc2)[C@H]2CCC[C@@H]12

Ki [5]: 110 nM
SMILES: O=C(O)CCC(=O)N(C1CC1)[C@H]1c2cc(-c3ccc(F)cc3)ccc2N(C(=O)c2ccc(OC(F)(F)F)cc2)[C@H]2CCC[C@H]21

Ki [5]: 9 nM
SMILES: O=C(O)CCC(=O)N(CC1CCC1)[C@H]1c2ccccc2N(C(=O)c2ccc(OC(F)(F)F)cc2)[C@H]2CCCC12 (single isomer, unassigned)

Ki [5]: 31 nM
SMILES: CCc1ccc2c(c1)[C@H](N(C(=O)CCC(=O)O)C1CC1)[C@@H]1CCC[C@@H]1N2C(=O)c1ccc(OC(F)(F)F)cc1

Ki [5]: 7800 nM
SMILES: CC(C)(CC(=O)N(C1CC1)[C@H]1c2ccccc2N(C(=O)OCc2ccccc2)[C@H]2CCC[C@H]21)C(=O)O

AUC(0-t) at 6 h [1]: 0.3 µM·h | hepatocyte CLint [2]: 16 µL/min/1e6 cells | IC50 [4]: 9.3 nM | Ki [5]: 8.1 nM
SMILES: O=C(O)CCC(=O)N(C1CC1)[C@H]1c2ccccc2N(C(=O)c2cccc(F)c2)[C@H]2CC[C@H]21

Ki [5]: 64 nM
SMILES: CC1(N(C(=O)CCC(=O)O)[C@H]2c3ccccc3N(C(=O)c3ccc(OC(F)(F)F)cc3)[C@H]3CCCC32)CC1 (single isomer, unassigned)

AUC(0-t) at 6 h [1]: 0.46 µM·h | hepatocyte CLint [2]: 14 µL/min/1e6 cells | IC50 [3]: 20 nM | IC50 [4]: 12 nM | Ki [5]: 7.3 nM
SMILES: O=C(O)CCC(=O)N(C1CC1)[C@H]1c2ccccc2N(C(=O)c2ccc(F)cc2)[C@H]2CC[C@H]21

Ki [5]: 16 nM
SMILES: CN(C(=O)CCC(=O)O)[C@H]1c2ccccc2N(C(=O)c2ccc(OC(F)(F)F)cc2)[C@H]2CCCC12 (single isomer, unassigned)

Ki [5]: 12 nM
SMILES: CCN(C(=O)CCC(=O)O)[C@H]1c2ccccc2N(C(=O)c2ccc(OC(F)(F)F)cc2)[C@H]2CCCC12 (single isomer, unassigned)

AUC(0-t) at 6 h [1]: 0.043 µM·h
SMILES: O=C(O)CCC(=O)N(C1CC1)[C@H]1c2ccc(F)cc2N(C(=O)c2ccc(OC(F)(F)F)cc2)[C@H]2CCC[C@H]21

IC50 [3]: 110 nM | IC50 [4]: 59 nM | Ki [5]: 2.3 nM
SMILES: O=C(O)CCC(=O)N(C1CC1)[C@H]1c2ccc(Cl)cc2N(C(=O)c2ccc(OC(F)(F)F)cc2)[C@H]2CCC[C@H]21

Ki [5]: 14 nM
SMILES: O=C(O)CCC(=O)N(C1CC1)[C@H]1c2cc(C(F)F)ccc2N(C(=O)c2ccc(OC(F)(F)F)cc2)[C@H]2CCC[C@H]21

Ki [5]: 9.4 nM
SMILES: O=C(O)COC(=O)N(C1CC1)C1c2ccccc2N(C(=O)c2ccccc2)C2CCCC21 (racemic)

Ki [5]: 56 nM
SMILES: O=C(O)CCC(=O)N(C1CC1)[C@H]1c2ccccc2N(C(=O)Nc2ccccc2)[C@H]2CCC[C@H]21

Ki [5]: 43 nM
SMILES: O=C(O)CCC(=O)N(C1CC1)[C@H]1c2cc(C3CC3)ccc2N(C(=O)c2ccc(OC(F)(F)F)cc2)[C@H]2CCC[C@H]21

IC50 [3]: 175 nM | Ki [5]: 32 nM
SMILES: O=C(O)CCC(=O)N(C1CC1)C1c2ccccc2N(C(=O)OCc2ccccc2)C2CCCCC21 (racemic)

hepatocyte CLint [2]: 13 µL/min/1e6 cells
SMILES: O=C(O)CCC(=O)N(C1CC1)[C@H]1c2ccccc2N(C(=O)c2ccc(OC(F)(F)F)cc2)[C@H]2CC[C@H]21

AUC(0-t) at 6 h [1]: 0.63 µM·h
SMILES: C[C@@H](OC(=O)N1c2ccccc2[C@H](N(C(=O)CCC(=O)O)C2CC2)[C@@H]2CCC[C@@H]21)c1ccc(F)cc1

IC50 [3]: 41 nM | Ki [5]: 10 nM
SMILES: O=C(O)CCC(=O)N(C1CC1)C1c2ccccc2N(C(=O)c2ccccc2)C2CCCC21 (racemic)

AUC(0-t) at 6 h [1]: 0.62 µM·h | Ki [5]: 7 nM
SMILES: O=C(O)CCC(=O)N(C1CC1)[C@H]1c2ccccc2N(C(=O)c2ccc(OC(F)(F)F)cc2)[C@H]2CCCC21 (single isomer, unassigned)

AUC(0-t) at 6 h [1]: 0.31 µM·h | hepatocyte CLint [2]: 15 µL/min/1e6 cells | IC50 [4]: 43 nM | Ki [5]: 5 nM
SMILES: O=C(O)CCC(=O)N(C1CC1)[C@H]1c2ccccc2N(C(=O)c2cccc(OC(F)(F)F)c2)[C@H]2CC[C@H]21

AUC(0-t) at 6 h [1]: 1.05 µM·h | IC50 [3]: 18 nM | IC50 [4]: 12 nM | Ki [5]: 3.4 nM
SMILES: O=C(O)CCC(=O)N(C1CC1)[C@H]1c2cc(F)c(Cl)cc2N(C(=O)c2ccc(OC(F)(F)F)cc2)[C@H]2CCC[C@H]21

Ki [5]: 98 nM
SMILES: O=C(c1ccc(OC(F)(F)F)cc1)N1c2ccccc2[C@H](N(C(=O)CCc2nn[nH]n2)C2CC2)[C@@H]2CCC[C@@H]21

Ki [5]: 82 nM
SMILES: C[C@H](CC(=O)N(C1CC1)[C@H]1c2ccccc2N(C(=O)OCc2ccccc2)[C@H]2CCC[C@H]21)C(=O)O

IC50 [3]: 210 nM | Ki [5]: 25 nM
SMILES: O=C(O)CCC(=O)N(C1CC1)C1c2ccccc2N(C(=O)OCc2ccccc2)C2CCC21 (racemic)

AUC(0-t) at 6 h [7]: 1.87 µM·h | IC50 [3]: 12 nM | IC50 [4]: 2.4 nM | Ki [5]: 8.4 nM
SMILES: O=C(O)CCC(=O)N(C1CC1)[C@H]1c2cc(F)ccc2N(C(=O)c2ccc(SC(F)(F)F)cc2)[C@H]2CCC[C@H]21

Ki [5]: 50 nM
SMILES: CC(C)N(C(=O)CCC(=O)O)[C@H]1c2ccccc2N(C(=O)c2ccc(OC(F)(F)F)cc2)[C@H]2CCCC21 (single isomer, unassigned)

hepatocyte CLint [2]: 18 µL/min/1e6 cells | IC50 [3]: 0.9 nM | IC50 [4]: 1.4 nM | Ki [5]: 2.5 nM
SMILES: O=C(O)COC(=O)N(C1CC1)[C@H]1c2ccccc2N(C(=O)c2ccc(OC(F)(F)F)cc2)[C@H]2CC[C@H]21

Ki [5]: 35 nM
SMILES: O=C(O)CCC(=O)N(CCC(F)(F)F)[C@H]1c2ccccc2N(C(=O)c2ccc(OC(F)(F)F)cc2)[C@H]2CCCC12 (single isomer, unassigned)

hepatocyte CLint [2]: 20 µL/min/1e6 cells | IC50 [3]: 0.8 nM | IC50 [4]: 1.1 nM | Ki [5]: 4.1 nM
SMILES: O=C(O)COC(=O)N(C1CC1)[C@H]1c2ccccc2N(C(=O)c2cccc(F)c2)[C@H]2CC[C@H]21

Ki [5]: 1490 nM
SMILES: O=C(O)CCCC(=O)N(C1CC1)C1c2ccccc2N(C(=O)OCc2ccccc2)C2CCCC21 (racemic)

IC50 [3]: 1840 nM | Ki [5]: 26 nM
SMILES: CCN(C(C)=O)[C@H]1c2ccccc2N(C(=O)c2ccccc2)[C@H]2CCC[C@@H]12

Ki [5]: 660 nM
SMILES: O=C(O)CCC(=O)N(C1CC1)[C@H]1c2ccccc2N(CC(=O)Nc2ccc(F)cc2)[C@H]2CCC[C@H]21

AUC(0-t) at 6 h [1]: 0.27 µM·h | Ki [5]: 12 nM
SMILES: O=C(O)CCC(=O)N(C1CC1)[C@H]1c2ccccc2N(C(=O)OCc2ccc(F)cc2)[C@H]2CCC[C@H]21
